The text below walks through data of US9938240B2, “Fluorinated derivatives of 3-hydroxypyridin-4-ones” (Apotex Technologies Inc., priority 2009, dated 2018).

By AUC is commonly meant concentration integrated over time. Read a low AUC as less exposure.

Data set [1] can be described thus: Oral cassette dosing PK/BBB studies. Format: in vivo, male Sprague-Dawley rats. The conditions noted are these: oral cassette dosing, male Sprague-Dawley rats; for AUC brain* / AUC: AUC normalized to 1 mg/kg dose; for Kp / AUC: rat; for Kp: brain and plasma, read-out: AUC brain/AUC plasma; for AUC: plasma. The protocol: In-vivo pharmacokinetic (PK) and blood brain barrier (BBB) studies were conducted in male Sprague-Dawley rats using cassette dosing via oral administration. […] No. 15, pp. 652-658.

A short description of data set [2]: Distribution coefficient determination, D7.4 (1-octanol / K2HPO4 buffer). In kind it is physicochemical. Particulars: 1-octanol / K2HPO4 buffer 50 mM pH 7.4; for logD: read-out: Log D7.4. The protocol: K2HPO4 buffer (50 mM, pH=7.4) and 1-octanol were used as the aqueous phase and the organic phase, respectively. The K2HPO4 buffer and 1-octanol were mixed, and pre-saturated with each other before use.
In a typical experiment, an aqueous solution of Apo6995 (3-hydroxy-2-methyl-1-(2,2,2-trifluoroethyl)pyridin-4(1H)-one) was prepared by weighing out 3 mg of the compound into a 10-mL test-tube. It was then mixed with K2HPO4 buffer (2 mL) and sonicated for 30 minutes with frequent vortexing. The solution was then filtered through HPLC syringe filter (4 mm PVDF syringe filter 0.45 μM) to obtain the aqueous solution.
One mL of this aqueous solution was pipetted out into another 10-mL test-tube and mixed with 1 mL of 1-octanol. The mixture was then vortexed for 1 hour. The solution was centrifuged at 2000 rpm for 10 minutes. A small amount of the lower aqueous layer was carefully pipetted out and analyzed by HPLC to obtain the peak height (HF). The distribution coefficient, D7.4, was calculated using the following equation: D7.4=(HI−HF)/HF.

In data set [3] the test system is SH-SY5Y human neuroblastoma cells. Particulars: for CC2 (cytotoxic concentration): H2O2-treated cells, viability below 80%; for CC1 (cytotoxic concentration): absence of H2O2, viability below 80%. From the text: Hydrogen peroxide (H2O2) is a major ROS (reactive oxidative species), which causes oxidative stress, and can induce apoptosis in many different cell types. One of the CNS drug design strategies is to use compounds with antioxidant properties as a possible treatment of both acute and chronic neurodegenerative diseases (Kang et al. Bioorganic & Medicinal Chemistry Letters, 2004, 14, 2261-2264). This involves testing the compounds of this invention for their protective effect against oxidative stress-induced cell death in SH-SY5Y human neuroblastoma cells. SH-SY5Y human neuroblastoma cells were cultured in DMEM (ATCC)/F12 (Cellgro) with 10% FBS. The cells were plated at 30,000 cells/cm^2 and grown for 1 day in the regular culture media prior to compound addition. Cells were routinely treated with the test compound, at a pre-determined range of concentrations, in the presence or absence of 50 μM hydrogen peroxide in a basal medium containing no FBS for 16-22 h. Cell viability was then measured using the routine MTT method (Mosmann, T., Rapid Colorimetric Assay for Cellular Growth and Survival: Application to Proliferation and Cytotoxicity Assays”. J. Immunol. Meth. 1983, 65, 55-63).
For data analysis, cell viability relative to control not treated with either H2O2 or the test compound, was plotted against the compound concentration. […] Cytotoxicity of the test compound was assessed in the absence of hydrogen peroxide.

For data set [4], the system named is human neuroblastoma MC-65 cells. The data set can be described thus: cells. The conditions noted are these: for EC100 / minimal effective concentration: Homo sapiens, MC65, 48 h; for EC100: read-out: EC100 (maximum effective concentration); for minimal effective concentration: read-out: TH (threshold protective concentration); for CC2 (cytotoxic concentration): MC-65, cultured without tetracycline; for CC2 (cytotoxic concentration) / CC1 (cytotoxic concentration): viability below 80%; for CC1 (cytotoxic concentration): MC-65, presence of TET. As to the method: In this assay, human neuroblastoma cells (MC-65 cells) are genetically engineered to conditionally express amyloid β peptide (Aβ). The Aβ production is suppressed by tetracycline (TET+) presence in culture medium, and its production is activated when TET is withdrawn (TET−). The activation of Aβ production results in cell death “MC-65 suicide”.
Protective effect of compounds against edogenously produced amyloid beta (Aβ) was assessed in human neuroblastoma MC-65 cells. MC-65 cells have been stably transformed to conditionally express high levels of a partial amyloid precursor (AP) fusion protein (Bryce Sopher et al., Brain Res Mol Brain Res. 1994, 207-17.). This protein is further proteolitically processed in the cells to form a set of AP-derived Aβ peptides. […] Activity of the promoter is tightly regulated by the presence of the antibiotic tetracycline (TET) in the culture medium. In the presence of TET (TET+), the promoter is in the basal state and no amyloid beta peptide is synthesized. In the absence of TET (TET−) the promoter is in induced state, resulting in the accumulation of Aβ peptides in the cells, degenerative changes in cell morphology and decreased survival.
Transfected human neuroblastoma cells (MC-65) were cultured in DMEM (ATCC) supplemented with non-essential amino acids and 10% FBS (VWR) in the presence of TET (1 μg/mL). For the experiment, the cells were plated at 35,000 cells/cm^2 and grown for 1 day in the regular culture media prior to compound addition. On the day of the assay, culture supernatant was removed from the wells and cells were thoroughly washed once with the compound incubation matrix containing no FBS and no TET. MC-65 cells were treated with a test compound at pre-determined range of concentrations in a basal medium containing no FBS and in the absence or presence of 1 μg/mL TET for approximately 48 h. Cell viability was then measured using the MTT method.
For data analysis, cell viabilities relative to the control not treated with a test compound and maintained in the presence of TET were plotted against the compound concentration. […] Cytotoxicity of the test compound was assessed in the cells maintained in the presence of TET.

Regarding `Oc1c(I)cc(Cl)c2cccnc12` [Clioquinol, reference compound], in data set [1], the “AUC brain*” value is 0.042 µg·h/mL, the Kp was 1.5 and the AUC was determined as 0.028 µg·h/mL.
With `Cc1cc(=O)c(O)c(CN(C)C)n1CC(F)(F)F` [Apo7065, 2-[(dimethylamino)methyl]-3-hydroxy-6-methyl-1-(2,2,2-trifluoroethyl)pyridin-4(1H)-one], in data set [2], the D7.4 is recorded as 4.93 and the logD was found to be 0.69. In data set [3], the “CC2 (cytotoxic concentration)” value was above 640 µM and the “CC1 (cytotoxic concentration)” value was found to be 40 µM.
As to `Cn1ccc(=O)c(O)c1CC(F)F` [Apo7080, 2-(2,2-difluoroethyl)-3-hydroxy-1-methylpyridin-4(1H)-one], in data set [1], the “AUC brain*” value was found to be 0.7 µg·h/mL, the Kp amounted to 0.76 and the AUC came out at 0.92 µg·h/mL. Also, in data set [3], the “CC2 (cytotoxic concentration)” value was above 640 µM and the “CC1 (cytotoxic concentration)” value was 40 µM. In data set [4], the EC100 is 10 µM, the minimal effective concentration amounted to 0.1 µM, the “CC2 (cytotoxic concentration)” value turned out to be 40 µM and the “CC1 (cytotoxic concentration)” value stood at 40 µM.
Turning to `Cc1cc(=O)c(O)c(CN2CCCCC2)n1CC(F)(F)F` [Apo7071, 3-hydroxy-6-methyl-2-(piperidin-1-ylmethyl)-1-(2,2,2-trifluoroethyl)pyridin-4(1H)-one], in data set [3], the “CC2 (cytotoxic concentration)” value was found to be 80 µM and the “CC1 (cytotoxic concentration)” value was 20 µM. Moreover, in data set [4], the EC100 is 10 µM, the minimal effective concentration was 1 µM, the “CC2 (cytotoxic concentration)” value was 20 µM and the “CC1 (cytotoxic concentration)” value worked out at 40 µM.
In the case of `Cc1c(O)c(=O)c(C(N2CCCCC2)C(F)(F)F)cn1C` (stereo not shown) [Apo7054, 3-Hydroxy-1,2-dimethyl-5-[2,2,2-trifluoro-1-(piperidin-1-yl)ethyl]pyridin-4(1H)-one], in data set [3], the “CC2 (cytotoxic concentration)” value is above 640 µM and the “CC1 (cytotoxic concentration)” value was 5 µM. Moreover, in data set [4], the EC100 was 1 µM, the minimal effective concentration was determined as 0.1 µM, the “CC2 (cytotoxic concentration)” value came out at 20 µM and the “CC1 (cytotoxic concentration)” value amounted to 20 µM.
`Cc1c(O)c(=O)c(C(n2ccnc2)C(F)(F)F)cn1C` (stereo not shown) [Apo7055, 3-Hydroxy-1,2-dimethyl-5-[2,2,2-trifluoro-1-(1H-imidazol-1-yl)ethyl]pyridin-4(1H)-one]: in data set [3], the “CC2 (cytotoxic concentration)” value was above 640 µM and the “CC1 (cytotoxic concentration)” value came out at 10 µM. Further, in data set [4], the EC100 was determined as 20 µM, the minimal effective concentration was found to be 1 µM, the “CC2 (cytotoxic concentration)” value was 40 µM and the “CC1 (cytotoxic concentration)” value was 40 µM.
Take `Cc1cc(=O)c(O)c(C(N2CCOCC2)C(F)(F)F)n1C` (stereo not shown) [Apo7333, 3-hydroxy-1,6-dimethyl-2-(2,2,2-trifluoro-1-morpholinoethyl)pyridin-4(1H)-one]: in data set [3], the “CC2 (cytotoxic concentration)” value came out at 320 µM and the “CC1 (cytotoxic concentration)” value was 320 µM. Also, in data set [4], the EC100 amounted to 10 µM, the minimal effective concentration came out at 1 µM, the “CC2 (cytotoxic concentration)” value worked out at 40 µM and the “CC1 (cytotoxic concentration)” value is 20 µM.
Consider `Cn1ccc(=O)c(O)c1C(C(F)F)N1CCCCC1` (stereo not shown) [Apo7319, 2-(2,2-difluoro-1-(piperidin-1-yl)ethyl)-3-hydroxy-1-methylpyridin-4(1H)-one], for which, in data set [3], the “CC2 (cytotoxic concentration)” value was determined as 320 µM and the “CC1 (cytotoxic concentration)” value amounted to 320 µM. In data set [4], the EC100 is 10 µM, the minimal effective concentration was determined as 1 µM, the “CC2 (cytotoxic concentration)” value was 40 µM and the “CC1 (cytotoxic concentration)” value is 40 µM.
With `Cc1c(Cl)c(=O)c(O)c(C(N(C)C)C(F)(F)F)n1C` (stereo not shown) [Apo7059, 3-chloro-6-[1-(dimethylamino)-2,2,2-trifluoroethyl]-5-hydroxy-1,2-dimethylpyridin-4(1H)-one], in data set [3], the “CC2 (cytotoxic concentration)” value was determined as 640 µM and the “CC1 (cytotoxic concentration)” value amounted to 40 µM. In data set [4], the EC100 is 10 µM, the minimal effective concentration was found to be 1 µM, the “CC2 (cytotoxic concentration)” value is 40 µM and the “CC1 (cytotoxic concentration)” value is 10 µM.
Turning to `Cc1cc(=O)c(O)c(CN(C)C)n1CC(F)F` [Apo7083, 1-(2,2-difluoroethyl)-2-[(dimethylamino)methyl]-3-hydroxy-6-methylpyridin-4(1H)-one], in data set [2], the D7.4 worked out at 1.70 and the logD stood at 0.23. For the same molecule, in data set [4], the EC100 was 10 µM, the minimal effective concentration turned out to be 0.1 µM, the “CC2 (cytotoxic concentration)” value came out at 40 µM and the “CC1 (cytotoxic concentration)” value worked out at 40 µM.
Consider `C=CCNC(c1c(O)c(=O)ccn1C)C(F)(F)F` (stereo not shown) [Apo7075, 3-hydroxy-1-methyl-2-[2,2,2-trifluoro-1-(prop-2-en-1-ylamino)ethyl]pyridin-4(1H)-one], for which, in data set [3], the “CC2 (cytotoxic concentration)” value was above 640 µM and the “CC1 (cytotoxic concentration)” value was 20 µM. Besides, in data set [4], the EC100 was determined as 10 µM, the minimal effective concentration came out at 0.1 µM, the “CC2 (cytotoxic concentration)” value is 20 µM and the “CC1 (cytotoxic concentration)” value was 10 µM.
Take `CN(C)Cc1cc(=O)c(O)c(C(O)C(F)(F)F)n1C` (stereo not shown) [Apo7022, 6-[(dimethylamino)methyl]-3-hydroxy-1-methyl-2-(2,2,2-trifluoro-1-hydroxyethyl)pyridin-4(1H)-one]: in data set [3], the “CC2 (cytotoxic concentration)” value stood at 320 µM and the “CC1 (cytotoxic concentration)” value came out at 40 µM. Also, in data set [4], the EC100 was determined as 20 µM, the minimal effective concentration turned out to be 0.1 µM, the “CC2 (cytotoxic concentration)” value came out at 40 µM and the “CC1 (cytotoxic concentration)” value was determined as 10 µM.
`C#CCN(C)C(c1c(O)c(=O)ccn1C)C(F)(F)F` (stereo not shown) [Apo7057, 3-hydroxy-1-methyl-2-{2,2,2-trifluoro-1-[methyl(prop-2-yn-1-yl)amino]ethyl}pyridin-4(1H)-one]: in data set [3], the “CC2 (cytotoxic concentration)” value stood at 80 µM and the “CC1 (cytotoxic concentration)” value was found to be 5 µM. Moreover, in data set [4], the EC100 stood at 10 µM, the minimal effective concentration is 1 µM, the “CC2 (cytotoxic concentration)” value is 20 µM and the “CC1 (cytotoxic concentration)” value was 20 µM.
